# Measured values as given in patent publication US20050060764A1, “Mouse model for bone metabolism” (priority 2003, published 2005).
# Strand notation (5' to 3'): a small letter for the sugar, then the base; units joined by * are phosphorothioate-linked, units joined directly phosphodiester-linked; [ ] holds rarer units or linkages, { } end groups; capitals alone tell only the bases. e = 2'-O-(2-methoxyethyl) (MOE); [5mC] = 5-methylcytosine; d = 2'-deoxy (DNA)
# Tested on: mouse RANKL mRNA
# Assay: Antisense inhibition of mouse RANKL mRNA levels in C2C12 cells, quantitative real-time PCR (Table 2)
# Type: cell-based
# Set-up: concentration or dose not given beside the values
# Details: averages from three experiments
# Description: Cells were seeded into 24-well plates (Falcon-353047 at a density of ˜10,000 cells/cm^2 for use in antisense oligonucleotide transfection.
# Cells are treated and data are obtained in triplicate. […] Cells were harvested 16-24 hours after oligonucleotide treatment.
# PCR reagents were obtained from Invitrogen Corporation, (Carlsbad, Calif.).
# Probes and primers to mouse RANKL were designed to hybridize to a mouse RANKL sequence, using published sequence information (GenBank accession number AF013170.1, incorporated herein as SEQ ID NO:ll). For mouse RANKL the PCR primers were: • forward primer: […] (SEQ ID NO:12) • reverse primer: […] (SEQ ID NO: 13) and • the PCR probe was: FAM-[…]-TAMRA (SEQ ID NO: 14) where FAM is the fluorescent reporter dye and TAMRA is the quencher dye. For mouse GAPDH the PCR primers were: • forward primer: […](SEQ ID NO:15) • reverse primer: […](SEQ ID NO:16) and the • PCR probe was: 5′ JOE-[…]-TAMRA 3′ (SEQ ID NO: 17) where JOE is the fluorescent reporter dye and TAMRA is the quencher dye.
# In accordance with the present invention, a second series of antisense compounds was designed to target different regions of the mouse RANKL RNA, using published sequences (GenBank accession number AF013170.1, incorporated herein as SEQ ID NO: 11). […] All cytidine residues are 5-methylcytidines. […] If present “N.D.” indicates “no data”.
row,Substance,% INHIB (inhibition of mouse RANKL mRNA levels)
1,180826 (antisense eT*eA*e[5mC]*eA*eA*dA*dG*dT*dG*d[5mC]*dA*d[5mC]*d[5mC]*dA*dG*eT*eT*eA*eA*eA) [compound 180826],33%
2,180827 (antisense eA*eG*e[5mC]*eT*eA*d[5mC]*dG*dA*dG*dT*dA*d[5mC]*d[5mC]*dT*dT*e[5mC]*eA*eG*eG*eG) [compound 180827],54%
3,180829 (antisense eA*eA*eG*eG*e[5mC]*dA*d[5mC]*d[5mC]*dT*dG*dG*dT*dG*dA*d[5mC]*e[5mC]*eA*eA*e[5mC]*eA) [compound 180829],23%
4,180830 (antisense eT*eG*eA*eA*eA*dG*dG*d[5mC]*dA*d[5mC]*d[5mC]*dT*dG*dG*dT*eG*eA*e[5mC]*e[5mC]*eA) [compound 180830],5%
5,180831 (antisense e[5mC]*e[5mC]*eT*eG*eA*d[5mC]*dA*dG*dA*dT*dT*dT*d[5mC]*dA*dG*eT*eA*eG*e[5mC]*e[5mC]) [compound 180831],54%
6,180832 (antisense eG*eG*eA*eA*eA*dA*dA*dA*dA*dA*dG*dA*dA*dA*d[5mC]*e[5mC]*eA*eA*eA*eA) [compound 180832],0%
7,180833 (antisense e[5mC]*eA*eG*eA*eG*dA*d[5mC]*dA*dA*dT*dG*d[5mC]*dT*dT*dT*eT*eA*eT*eT*eG) [compound 180833],22%
8,"aacatggagcgggaggcggc (antisense eA*eA*e[5mC]*eA*eT*dG*dG*dA*dG*d[5mC]*dG*dG*dG*dA*dG*eG*e[5mC]*eG*eG*e[5mC]) [ISIS 180801, 2′-MOE gapmer targeted to mouse RANKL]",at least 40%
9,"acatggagcgggaggcggcg (antisense eA*e[5mC]*eA*eT*eG*dG*dA*dG*d[5mC]*dG*dG*dG*dA*dG*dG*e[5mC]*eG*eG*e[5mC]*eG) [ISIS 180800, 2′-MOE gapmer targeted to mouse RANKL]",at least 40%
10,"agcagactccgccacggccc (antisense eA*eG*e[5mC]*eA*eG*dA*d[5mC]*dT*d[5mC]*d[5mC]*dG*d[5mC]*d[5mC]*dA*d[5mC]*eG*eG*e[5mC]*e[5mC]*e[5mC]) [ISIS 180790, 2′-MOE gapmer targeted to mouse RANKL]",at least 40%
11,"agctacgagtaccttcaggg (antisense eA*eG*e[5mC]*eT*eA*d[5mC]*dG*dA*dG*dT*dA*d[5mC]*d[5mC]*dT*dT*e[5mC]*eA*eG*eG*eG) [ISIS 180827, 2′-MOE gapmer targeted to mouse RANKL]",at least 40%
12,"agctgaagatagtctgtagg (antisense eA*eG*e[5mC]*eT*eG*dA*dA*dG*dA*dT*dA*dG*dT*d[5mC]*dT*eG*eT*eA*eG*eG) [ISIS 180808, 2′-MOE gapmer targeted to mouse RANKL]",at least 40%
13,"atgctaatttcttcaccagc (antisense eA*eT*eG*e[5mC]*eT*dA*dA*dT*dT*dT*d[5mC]*dT*dT*d[5mC]*dA*e[5mC]*e[5mC]*eA*eG*e[5mC]) [ISIS 180811, 2′-MOE gapmer targeted to mouse RANKL]",at least 40%
14,"atgttccacgaaatgagtct (antisense eA*eT*eG*eT*eT*d[5mC]*d[5mC]*dA*d[5mC]*dG*dA*dA*dA*dT*dG*eA*eG*eT*e[5mC]*eT) [ISIS 180813, 2′-MOE gapmer targeted to mouse RANKL]",at least 40%
15,"cagttccttctgcacggccc (antisense e[5mC]*eA*eG*eT*eT*d[5mC]*d[5mC]*dT*dT*d[5mC]*dT*dG*d[5mC]*dA*d[5mC]*eG*eG*e[5mC]*e[5mC]*e[5mC]) [ISIS 180804, 2′-MOE gapmer targeted to mouse RANKL]",at least 40%
16,"ccgccgagcagactccgcca (antisense e[5mC]*e[5mC]*eG*e[5mC]*e[5mC]*dG*dA*dG*d[5mC]*dA*dG*dA*d[5mC]*dT*d[5mC]*e[5mC]*eG*e[5mC]*e[5mC]*eA) [ISIS 180791, 2′-MOE gapmer targeted to mouse RANKL]",at least 40%

row,Substance,% INHIB (inhibition of mouse RANKL mRNA levels)
1,"cctgacagatttcagtagcc (antisense e[5mC]*e[5mC]*eT*eG*eA*d[5mC]*dA*dG*dA*dT*dT*dT*d[5mC]*dA*dG*eT*eA*eG*e[5mC]*e[5mC]) [ISIS 180831, 2′-MOE gapmer targeted to mouse RANKL]",at least 40%
2,"cgggaggeggcgggtggcgg (antisense e[5mC]*eG*eG*eG*eA*dG*dG*d[5mC]*dG*dG*d[5mC]*dG*dG*dG*dT*eG*eG*e[5mC]*eG*eG) [ISIS 180799, 2′-MOE gapmer targeted to mouse RANKL]",at least 40%
3,"cttatttgcaggtcccagcg (antisense e[5mC]*eT*eT*eA*eT*dT*dT*dG*d[5mC]*dA*dG*dG*dT*d[5mC]*d[5mC]*e[5mC]*eA*eG*e[5mC]*eG) [ISIS 180820, 2′-MOE gapmer targeted to mouse RANKL]",at least 40%
4,"gcatcggaatacctctccca (antisense eG*e[5mC]*eA*eT*e[5mC]*dG*dG*dA*dA*dT*dA*d[5mC]*d[5mC]*dT*d[5mC]*eT*e[5mC]*e[5mC]*e[5mC]*eA) [ISIS 180817, 2′-MOE gapmer targeted to mouse RANKL]",at least 40%
5,"gccctgctccgcgatcgttc (antisense eG*e[5mC]*e[5mC]*e[5mC]*eT*dG*d[5mC]*dT*d[5mC]*d[5mC]*dG*d[5mC]*dG*dA*dT*e[5mC]*eG*eT*eT*e[5mC]) [ISIS 180793, 2′-MOE gapmer targeted to mouse RANKL]",at least 40%
6,"gctggcccggcgcatggcgc (antisense eG*e[5mC]*eT*eG*eG*d[5mC]*d[5mC]*d[5mC]*dG*dG*d[5mC]*dG*d[5mC]*dA*dT*eG*eG*e[5mC]*eG*e[5mC]) [ISIS 180795, 2′-MOE gapmer targeted to mouse RANKL]",at least 40%
7,"ggcttgcctcgctgggccac (antisense eG*eG*e[5mC]*eT*eT*dG*d[5mC]*d[5mC]*dT*d[5mC]*dG*d[5mC]*dT*dG*dG*eG*e[5mC]*e[5mC]*eA*e[5mC]) [ISIS 180805, 2′-MOE gapmer targeted to mouse RANKL]",at least 40%
8,"gttcacaaaggtcctggcag (antisense eG*eT*eT*e[5mC]*eA*d[5mC]*dA*dA*dA*dG*dG*dT*d[5mC]*d[5mC]*dT*eG*eG*e[5mC]*eA*eG) [ISIS 180788, 2′-MOE gapmer targeted to mouse RANKL]",at least 40%
9,"tcagaattgcccgaccagtt (antisense eT*e[5mC]*eA*eG*eA*dA*dT*dT*dG*d[5mC]*d[5mC]*d[5mC]*dG*dA*d[5mC]*e[5mC]*eA*eG*eT*eT) [ISIS 180810, 2′-MOE gapmer targeted to mouse RANKL]",at least 40%
10,"tcagtggcacatgtccaggg (antisense eT*e[5mC]*eA*eG*eT*dG*dG*d[5mC]*dA*d[5mC]*dA*dT*dG*dT*d[5mC]*e[5mC]*eA*eG*eG*eG) [ISIS 180818, 2′-MOE gapmer targeted to mouse RANKL]",at least 40%
11,"tccggatccagcagggaagg (antisense eT*e[5mC]*e[5mC]*eG*eG*dA*dT*d[5mC]*d[5mC]*dA*dG*d[5mC]*dA*dG*dG*eG*eA*eA*eG*eG) [ISIS 180812, 2′-MOE gapmer targeted to mouse RANKL]",at least 40%
12,"tcggctggcccggcgcatgg (antisense eT*e[5mC]*eG*eG*e[5mC]*dT*dG*dG*d[5mC]*d[5mC]*d[5mC]*dG*dG*d[5mC]*dG*e[5mC]*eA*eT*eG*eG) [ISIS 180796, 2′-MOE gapmer targeted to mouse RANKL]",at least 40%
13,"tctcggctggcccggcgcat (antisense eT*e[5mC]*eT*e[5mC]*eG*dG*d[5mC]*dT*dG*dG*d[5mC]*d[5mC]*d[5mC]*dG*dG*e[5mC]*eG*e[5mC]*eA*eT) [ISIS 180797, 2′-MOE gapmer targeted to mouse RANKL]",at least 40%
14,"tcttcactctccagagtcga (antisense eT*e[5mC]*eT*eT*e[5mC]*dA*d[5mC]*dT*d[5mC]*dT*d[5mC]*d[5mC]*dA*dG*dA*eG*eT*e[5mC]*eG*eA) [ISIS 180803, 2′-MOE gapmer targeted to mouse RANKL]",at least 40%
15,"tgctccgcgatcgttctctc (antisense eT*eG*e[5mC]*eT*e[5mC]*d[5mC]*dG*d[5mC]*dG*dA*dT*d[5mC]*dG*dT*dT*e[5mC]*eT*e[5mC]*eT*e[5mC]) [ISIS 180792, 2′-MOE gapmer targeted to mouse RANKL]",at least 40%
16,"tttattttgcttgcatagtt (antisense eT*eT*eT*eA*eT*dT*dT*dT*dG*d[5mC]*dT*dT*dG*d[5mC]*dA*eT*eA*eG*eT*eT) [ISIS 180828, 2′-MOE gapmer targeted to mouse RANKL]",at least 40%
